{
  "source": "patent US9688628B1",
  "about": "“Drug repositioning: urease inhibitory activity of (2S)-1-[(2S)-2-methyl-3-sulfanylpropanoyl]pyrrolidine-2-carboxylic acid (captopril)” (priority 2016, dated 2017)",
  "key": {"Jack bean urease [1]": {"biological_target": "T1, Jack bean urease (Canavalia ensiformis, UniProt P07374)", "T1 construct": "purchased Sigma-Aldrich (USA) Type IX", "T1 sequence (P07374 whole entry, looked up)": "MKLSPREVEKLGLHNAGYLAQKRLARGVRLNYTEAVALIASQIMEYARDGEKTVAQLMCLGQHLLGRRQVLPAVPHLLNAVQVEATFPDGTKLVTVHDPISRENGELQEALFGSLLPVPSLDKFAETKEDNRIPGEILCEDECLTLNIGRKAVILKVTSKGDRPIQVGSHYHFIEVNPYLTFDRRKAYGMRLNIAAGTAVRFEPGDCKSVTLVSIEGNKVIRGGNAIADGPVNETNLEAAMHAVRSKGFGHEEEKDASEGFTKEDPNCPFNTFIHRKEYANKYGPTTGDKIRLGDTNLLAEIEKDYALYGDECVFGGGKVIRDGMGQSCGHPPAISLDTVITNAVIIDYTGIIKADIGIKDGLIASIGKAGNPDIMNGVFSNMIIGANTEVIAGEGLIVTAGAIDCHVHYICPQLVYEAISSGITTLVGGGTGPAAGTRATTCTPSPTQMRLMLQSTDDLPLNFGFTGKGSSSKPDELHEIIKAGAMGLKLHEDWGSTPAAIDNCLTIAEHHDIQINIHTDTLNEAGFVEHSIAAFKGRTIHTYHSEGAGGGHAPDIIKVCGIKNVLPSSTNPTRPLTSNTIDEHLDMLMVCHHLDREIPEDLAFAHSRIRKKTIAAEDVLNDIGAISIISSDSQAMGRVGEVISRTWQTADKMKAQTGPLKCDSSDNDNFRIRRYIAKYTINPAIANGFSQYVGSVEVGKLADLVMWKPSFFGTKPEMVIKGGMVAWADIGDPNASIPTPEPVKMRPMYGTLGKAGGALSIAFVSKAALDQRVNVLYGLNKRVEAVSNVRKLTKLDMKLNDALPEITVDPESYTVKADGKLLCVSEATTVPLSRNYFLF", "assay": "biochemical"}, "Jack bean urease [2]": {"biological_target": "T1, Jack bean urease", "assay": "mechanistic (kinetic) studies on urease", "type": "biochemical", "protocol": "For mechanistic studies, urease enzyme solution (1 U/200 μL) was incubated with different concentrations of inhibitors for 15 min at 30° C. The reaction was initiated by adding different concentrations of substrate (0.5-4.0 mM), then phenol and alkali reagent were added and change in absorbance was measured for 50 minutes at 630 nm on microtitre plate reader (Spectra Max M5, Molecular Devices, CA, USA).\nThe IC50 values were calculated by the EZ-Fit enzyme kinetics program (Perellela Scientific, Inc., Amherst, USA). Lineweaver-Burk plot, secondary plot, and Dixon plot were plotted by using Grafit 7 (Erithacus Software Limited, UK). Grafit 7 program was used to evaluate the correlation coefficients, slopes, and intercepts by linear regression analysis."}},
  "data": [
    {"compound": "C[C@H](CS)C(=O)N1CCC[C@H]1C(=O)O", "note": "[Captopril, (2S)-1-[(2S)-2-methyl-3-sulfanylpropanoyl]pyrrolidine-2-carboxylic acid]", "values": [
      {"measurement": "IC50", "setting": "Jack bean urease [1]", "result": "27 ± 1.97", "unit": "µM"},
      {"measurement": "type of inhibition (Lineweaver-Burk plot)", "setting": "Jack bean urease [2]; FIG. 2A, apparent Km and Vmax changed", "result": "mixed-type inhibitor"},
      {"measurement": "type of inhibition (Dixon plot)", "setting": "Jack bean urease [2]; FIG. 2C, 1/Vmax vs [I]", "result": "non-competitive"}
    ]}
  ]
}
